{"source": "ChEMBL document CHEMBL5046228", "about": "(Eur J Med Chem, 2022)", "key": {"[1]": {"tested_on": "NCI-H1299", "experiment": "Induction of apoptosis in human NCI-H1299 cells assessed as increase in viable cells at 0.1 uM after 36 hrs by annexin-V-FITC/PI staining based flow cytometric analysis (reference value: 94.1%)", "type": "functional"}, "[2]": {"tested_on": "NCI-H1299", "experiment": "Induction of cell cycle arrest in human NCI-H1299 cells assessed as accumulation at S phase at 0.02 uM after 36 hrs by PI staining based flow cytometry analysis (reference value: 24.8%)", "type": "functional"}}, "data": [{"smiles": "C#CCN(C)CCN(C)c1cc(OC)c(Nc2nccc(Nc3cn(C)c4ccccc34)n2)cc1NC(=O)C=C", "values": [{"measurement": "Activity", "setting": "[1]", "result": 92.6, "unit": "%"}, {"measurement": "Activity", "setting": "[2]", "result": 23.8, "unit": "%"}]}]}
